The test system of one assay is WM3928 cells. Description: WM3928 Cell Proliferation Assay (2). It counts as cell-based. Here is the method: WM3928 Cell Proliferation Assay (2)
WM3928 cells (#WM3928-01-0001) are obtained from Rockland Immunochemicals Inc (Gilbertsville, PA). Briefly, cells were grown in MCDB 153 medium (Sigma, #M7403, St. Louis, MO) supplemented with 20% Leibovitz's L-15 (ThermoFisher #11415-064, Waltham, MA), 2% heat inactivated fetal bovine serum (ThermoFisher, #A3840001, Waltham, MA), 5 μg/mL Insulin (Bovine Pancreas) (Sigma, #10516, St. Louis, MO), 1.68 mM Calcium Chloride (Sigma, #C-34006, St. Louis, MO) and 1% Penicillin/Streptomycin/L-Glutamine (ThermoFisher #10378016, Waltham, MA) at 37° C., 5% CO2, and 95% humidity. Cells are expanded until reaching 70-95% confluency at which point they are sub-cultured or harvested for assay use. Using the Beckman Coulter Echo 650, a serial dilution of test compound is dispensed into a 384-well black clear bottom plate in triplicate. Seven hundred fifty cells are added per well in 50 μL complete growth medium in the 384-well plate. Plates are incubated for 67-72 hours at 37° C., 5% CO2, and 95% humidity. At the end of the incubation, 10 μL of a 440 μM solution of resazurin (Sigma, #199303, St. Louis, MO) in PBS is added to each well of the plate and plates are incubated for an additional 3-6 hours at 37° C., 5% CO2, and 95% humidity. Plates are read on a Synergy2 or equivalent reader (Biotek, Winooski VT) using an excitation of 540 nm and an emission of 600 nm. Data is analyzed using Prism software (GraphPad, San Diego, CA) to calculate IC50 values.

The target of assay [1] is C-Raf kinase (SEQ. ID NO: 3) (Homo sapiens (Human), UniProt P04049, Y340D/Y341D). Description: Biochemical Assay for C-Raf (2). The settings on record: Table J, biochemical assay (2); read-out: CRAF (2). How it is done:
Biochemical Assay for C-Raf (2)
Activity of C-Raf kinase (SEQ. ID NO: 3) was determined spectroscopically using a coupled pyruvate kinase/lactate dehydrogenase assay that continuously monitors the ATP hydrolysis-dependent oxidation of NADH (e.g., Schindler et al., Science, 2000, 289, 1938-1942). Assays were conducted in 384-well plates (25 μL final volume) using 3.84 nM C-Raf (Eurofins), 1.5 units pyruvate kinase, 2.1 units lactate dehydrogenase, 1 mM phosphoenol pyruvate, 0.7 mM NADH, 50 nM MEK (SignalChem), and 1 mM ATP in assay buffer (100 mM Tris, pH 7.5, 15 mM MgCl2, 0.5 mM DTT, 0.1% octyl-glucoside, 0.002% (w/v) BSA, and 0.002% Triton X-100). Inhibition of C-Raf was measured by adding serial diluted test compound (final assay concentration of 1% DMSO). A decrease in absorption at 340 nm was monitored hourly for 4 h at 30° C. on a multi-mode microplate reader (BioTek). The reaction rate was calculated using the 2 to 3 h time frame. The reaction rate at each concentration of compound was converted to percent inhibition using controls (i.e., reaction with no test compound and reaction with a known inhibitor) and IC50 values were calculated by fitting a four-parameter sigmoidal curve to the data using Prism (GraphPad software).

Assay [2] concerns the target A-Raf kinase (SEQ. ID No: 1) (Homo sapiens (Human), UniProt P10398, Y301D/Y302D). Briefly: Biochemical Assay for A-Raf (2). Conditions: Table J, biochemical assay (2); read-out: ARAF (2). Here is the method:
Biochemical Assay for A-Raf (2)
Activity of A-Raf kinase (SEQ. ID No: 1) was determined spectroscopically using a coupled pyruvate kinase/lactate dehydrogenase assay that continuously monitors the ATP hydrolysis-dependent oxidation of NADH (e.g., Schindler et al., Science, 2000, 289, 1938-1942). Assays were conducted in 384-well plates (25 μL final volume) using 20 nM A-Raf (Eurofins), 1.5 units pyruvate kinase, 2.1 units lactate dehydrogenase, 1 mM phosphoenol pyruvate, 0.7 mM NADH, 100 nM MEK (SignalChem), and 1 mM ATP in assay buffer (100 mM Tris, pH 7.5, 15 mM MgCl2, 0.5 mM DTT, 0.1% octyl-glucoside, 0.002% (w/v) BSA, and 0.002% Triton X-100). Inhibition of A-Raf was measured by adding serial diluted test compound (final assay concentration of 1% DMSO). A decrease in absorption at 340 nm was monitored hourly for 4 h at 30° C. on a multi-mode microplate reader (BioTek). The reaction rate was calculated using the 3 to 4 h time frame. The reaction rate at each concentration of compound was converted to percent inhibition using controls (i.e., reaction with no test compound and reaction with a known inhibitor) and IC50 values were calculated by fitting a four-parameter sigmoidal curve to the data using Prism (GraphPad software).

A further assay deals with A375 cells. Briefly: A375 Cell Proliferation Assay (2). The format is cell-based. Conditions: Homo sapiens, A-375. Here is the method:
A375 Cell Proliferation Assay (2)
A375 cells (catalog (#CRL-1619) are obtained from the American Type Culture Collect (ATTC, Manassas, VA). Briefly, cells were grown in DMEM High Glucose supplemented with 10% characterized fetal bovine serum (Invitrogen, Carlsbad, CA) and 1% Penicillin/Streptomycin/L-Glutamine at 37° C., 5% CO2, and 95% humidity. Cells are expanded until reaching 70-95% confluency at which point they are sub-cultured or harvested for assay use. Using the Beckman Coulter Echo 650, a serial dilution of test compound is dispensed into a 384-well black clear bottom plate in triplicate. Six hundred twenty-five cells are added per well in 50 μL complete growth medium in the 384-well plate. Plates are incubated for 67-72 h at 37° C., 5% CO2, and 95% humidity. At the end of the incubation, 10 μL of a 440 μM solution of resazurin (Sigma, St. Louis, MO) in PBS is added to each well of the plate and plates are incubated for an additional 3-6 h at 37° C., 5% CO2, and 95% humidity. Plates are read on a Synergy2 or equivalent reader (Biotek, Winooski VT) using an excitation of 540 nm and an emission of 600 nm. Data is analyzed using Prism software (GraphPad, San Diego, CA) to calculate IC50 values.

Bounds are passed on as bounds.

Chain of C-Raf kinase (SEQ. ID NO: 3) (P04049 307-648 Y340D/Y341D): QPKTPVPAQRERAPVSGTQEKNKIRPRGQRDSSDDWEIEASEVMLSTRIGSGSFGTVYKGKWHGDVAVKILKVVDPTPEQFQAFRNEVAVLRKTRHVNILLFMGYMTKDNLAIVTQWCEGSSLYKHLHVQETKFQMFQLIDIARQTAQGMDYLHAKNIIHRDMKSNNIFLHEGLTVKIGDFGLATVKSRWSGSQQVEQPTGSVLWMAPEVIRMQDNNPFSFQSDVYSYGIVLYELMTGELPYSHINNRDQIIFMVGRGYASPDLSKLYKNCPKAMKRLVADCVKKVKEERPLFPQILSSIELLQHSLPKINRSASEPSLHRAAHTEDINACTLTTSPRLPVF
Chain of A-Raf kinase (SEQ. ID No: 1) (P10398 other isoform, or with tags, fused parts or gaps Y301D (already in the parent)/Y302D (already in the parent)): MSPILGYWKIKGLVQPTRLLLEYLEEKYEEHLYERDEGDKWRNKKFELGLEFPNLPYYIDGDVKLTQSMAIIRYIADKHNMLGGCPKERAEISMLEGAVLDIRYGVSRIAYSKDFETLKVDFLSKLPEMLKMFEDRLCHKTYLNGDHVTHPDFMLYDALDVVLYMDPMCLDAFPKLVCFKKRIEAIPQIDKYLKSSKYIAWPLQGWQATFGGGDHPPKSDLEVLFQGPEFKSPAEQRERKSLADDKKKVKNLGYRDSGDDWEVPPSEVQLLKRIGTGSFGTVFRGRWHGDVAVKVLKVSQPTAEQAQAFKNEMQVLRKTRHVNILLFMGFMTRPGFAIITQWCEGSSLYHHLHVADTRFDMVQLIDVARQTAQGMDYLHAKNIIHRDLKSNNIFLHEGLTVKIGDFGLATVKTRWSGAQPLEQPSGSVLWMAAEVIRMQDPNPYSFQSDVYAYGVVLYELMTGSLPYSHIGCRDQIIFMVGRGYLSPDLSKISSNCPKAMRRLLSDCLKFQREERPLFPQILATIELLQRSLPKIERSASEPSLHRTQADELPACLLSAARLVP

Take `CNC(=N)c1cc(-c2cc(-c3cc(NC(=O)c4ccnc(C(C)(C)F)c4)ccc3C)ccn2)ccn1` [Example 452]: the IC50 in the assay on WM3928 cells was 100 to 500 nM; in assay [1], not above 100 nM; in assay [2] it was 1000 to 10000 nM; in the assay on A375 cells it was 100 to 500 nM.
For the compound `CNC(=O)c1cc(-c2cncc(-c3cc(NC(=O)c4ccnc(C(C)C)c4)ccc3C)c2)ccn1` [Example 445], the IC50 in the assay on WM3928 cells was not above 100 nM; in assay [1], not above 100 nM; in assay [2] it was 500 to 1000 nM; in the assay with A375 cells, 100 to 500 nM.
Consider `CNC(=O)c1cc(-c2cc(-c3cc(NC(=O)c4ccnc(C(C)(C)F)c4)cc(F)c3F)ccn2)ccn1` [Example 478], for which the IC50 with WM3928 cells fell in the range of 100 to 500 nM; in assay [1], 100 to 500 nM; in assay [2], 1000 to 10000 nM; in the assay with A375 cells it was 1000 to 10000 nM.
With `CNC(=O)c1cc(-c2cc(-c3cc(NC(=O)c4ccnc(C(C)(C)F)c4)ccc3C)cnn2)ccn1` [Example 473], the IC50 with WM3928 cells is not above 100 nM; in assay [1], not above 100 nM; in assay [2], 1000 to 10000 nM; in the assay with A375 cells it was not above 100 nM.
Take `CNC(=O)c1cc(-c2cc(-c3cc(NC(=O)c4ccnc(C(C)(C)F)c4)cnc3C)ccn2)ccn1` [Example 444]: the IC50 with WM3928 cells is 100 to 500 nM; in assay [1], not above 100 nM; in assay [2], 1000 to 10000 nM; in the assay on A375 cells, 100 to 500 nM.
Take `CNC(=O)c1cc(-c2cc(-c3cc(NC(=O)c4ccnc(C(C)(C)F)c4)ccc3C(F)(F)F)ccn2)ccn1` [Example 471]: the IC50 was in the range of 1000 to 10000 nM in the assay on WM3928 cells, 1000 to 10000 nM in assay [1], 100 to 500 nM in assay [2] and 1000 to 10000 nM in the assay on A375 cells.
`CNC(=O)c1cc(-c2cc(-c3cc(NC(=O)c4ccnc(C(C)C)c4)cnc3C)ccn2)ccn1` [Example 465]: the IC50 in the assay on WM3928 cells was 100 to 500 nM; in assay [1], not above 100 nM; in assay [2] it was 1000 to 10000 nM; in the assay with A375 cells, 500 to 1000 nM.
`CNC(=O)c1cc(-c2cncc(-c3cc(NC(=O)c4ccnc(C(C)(C)C#N)c4)ccc3C)c2)ccn1` [Example 442]: the IC50 in the assay on WM3928 cells is not above 100 nM; in assay [1], not above 100 nM; in assay [2], 1000 to 10000 nM; in the assay with A375 cells, not above 100 nM.
For the compound `Cc1ccc(NC(=O)c2ccnc(C(C)(C)F)c2)cc1-c1ccnc(-c2ccnc(C#N)c2)c1` [Example 447], the IC50 in the assay with WM3928 cells is 500 to 1000 nM; in assay [1], not above 100 nM; in assay [2], 1000 to 10000 nM; in the assay with A375 cells it was 1000 to 10000 nM.
In the case of `CNC(=O)c1cc(-c2cc(-c3cc(NC(=O)c4ccnc(C(C)(C)F)c4)ccc3C)cc(C)n2)ccn1` [Example 470], the IC50 in the assay on WM3928 cells is not above 100 nM; in assay [1] it was not above 100 nM; in assay [2], 1000 to 10000 nM; with A375 cells, 100 to 500 nM.
Take `CNC(=O)c1cc(-c2cc(-c3cc(F)cc(NC(=O)c4ccnc(C(C)(C)F)c4)c3F)ccn2)ccn1` [Example 475]: the IC50 (with WM3928 cells; in assay [1]; in assay [2]; with A375 cells) was 1000 to 10000 nM each time.
For the compound `CNC(=O)c1cc(-c2cc(-c3cc(NC(=O)c4ccnc(C(C)(F)F)c4)ccc3C)ccn2)ccn1` [Example 441], the IC50 in the assay with WM3928 cells is not above 100 nM; in assay [1], not above 100 nM; in assay [2], 500 to 1000 nM; with A375 cells, not above 100 nM.
For the compound `Cc1ncc(NC(=O)c2ccnc(C(C)(C)F)c2)cc1-c1ccnc(-c2ccnc(NC(=O)C3CC3)c2)c1` [Example 454], the IC50 is not above 100 nM in the assay on WM3928 cells, not above 100 nM in assay [1], 500 to 1000 nM in assay [2] and not above 100 nM with A375 cells.
Turning to `Cc1cc(-c2cc(NC(=O)c3ccnc(C(C)(C)F)c3)ccc2C)cc(-c2ccnc(C#N)c2)n1` [Example 483], the IC50 in the assay on WM3928 cells is 500 to 1000 nM; in assay [1] it was not above 100 nM; in assay [2], 1000 to 10000 nM; in the assay with A375 cells, 1000 to 10000 nM.
For `CNC(=O)c1cc(-c2cc(-c3cc(NC(=O)c4ccnc(C(C)(C)F)c4)ccc3C)c(F)cn2)ccn1` [Example 469], the IC50 in the assay with WM3928 cells was 100 to 500 nM; in assay [1], not above 100 nM; in assay [2], 1000 to 10000 nM; in the assay with A375 cells, 100 to 500 nM.
Consider `CNC(=O)c1cc(-c2cncc(-c3cc(NC(=O)c4ccnc(C(C)C)c4)ccc3C)c2)ncn1` [Example 446], for which the IC50 was not above 100 nM in the assay with WM3928 cells, not above 100 nM in assay [1], 1000 to 10000 nM in assay [2] and 100 to 500 nM in the assay on A375 cells.
In the case of `CNC(=O)c1cc(-c2cc(-c3cc(NC(=O)c4ccnc(C(C)(C)F)c4)ccn3)ccn2)ccn1` [Example 481], the IC50 in the assay on WM3928 cells is 1000 to 10000 nM; in assay [1], 500 to 1000 nM; in assay [2], 1000 to 10000 nM; in the assay with A375 cells, 1000 to 10000 nM.
Regarding `CNC(=O)c1cc(-c2cc(-c3cc(NC(=O)c4ccnc(C(C)(C)F)c4)c(F)cc3F)ccn2)ccn1` [Example 482], the IC50 in the assay on WM3928 cells is 100 to 500 nM; in assay [1], not above 100 nM; in assay [2] it was 500 to 1000 nM; in the assay on A375 cells it was 100 to 500 nM.
Take `CNC(=O)c1cc(-c2cc(-c3cc(NC(=O)c4ccnc(C(C)(F)F)c4)cnc3C)ccn2)ccn1` [Example 463]: the IC50 with WM3928 cells is 100 to 500 nM; in assay [1], not above 100 nM; in assay [2], 1000 to 10000 nM; in the assay with A375 cells it was 500 to 1000 nM.
For `Cc1ncc(NC(=O)c2ccnc(C3(C#N)CC3)c2)cc1-c1ccnc(-c2ccnc(NC(=O)C3CC3)c2)c1` [Example 461], the IC50 in the assay with WM3928 cells is not above 100 nM; in assay [1], not above 100 nM; in assay [2], 100 to 500 nM; with A375 cells, not above 100 nM.
`CNC(=O)c1cc(-c2cc(-c3cc(NC(=O)c4ccnc(C5(C#N)CC5)c4)cnc3C)ccn2)ccn1` [Example 464]: the IC50 is 100 to 500 nM in the assay with WM3928 cells, not above 100 nM in assay [1], 100 to 500 nM in assay [2] and 100 to 500 nM in the assay with A375 cells.
On to `Cc1ccc(NC(=O)c2ccnc(C3(C#N)CC3)c2)cc1-c1ccnc(-c2ccnc(NC(=O)C3CC3)c2)c1` [Example 457], for which the IC50 in the assay with WM3928 cells is not above 100 nM; in assay [1], not above 100 nM; in assay [2], 100 to 500 nM; in the assay on A375 cells it was not above 100 nM.

The record behind these values is patent US12319655B2, “RAF kinase inhibitors and methods of use thereof” (Deciphera Pharmaceuticals, LLC, priority 2021, dated 2025).
